Assay results taken from patent publication US5001154A, “Fervescence composition” (K.K. Ueno Seiyaku Oyo Kenkyujo, priority 1987, dated 1991).

Columns and labels:
[1] = fervescence activity by intravenous injection (rising of body temperature), 5 mg/kg; type: in vivo, Wister male rats; details: 5 mg/kg intravenous, urethane-anesthetized rats
Procedure: (§1) Test animals were Wister male rats (8 weeks old) weighing 200±10 g. The rats were applied to anesthesia by intraperitoneal injection of 1.25 g/kg of urethane. Each test drug was dissolved into ethyl alcohol. The ethyl alcohol solution was diluted with Ringer's solution at least 50 times just before use and 1 mg/kg of the each test drug was intravenously administered. Body temperature was measured in the same manner as in Example 1.
Ringer's solution containing ethyl alcohol was administered as control. Rising of body temperature is shown by the rising degree (°C.) from the temperature before administration.
Experiment was carried out in the same manner as in Example 2 except for that test drugs were administered intravenously with a dose of 5 mg/kg.

acute toxicity (LD50) = details: mouse, in vivo; mice, intravenous injection
Source text: Acute toxicity (LD50) of the test drugs was estimated on Slc-ddY female mice (5-weeks old) by an intravenous injection.

[2] = fervescence activity by intravenous injection (rising of body temperature), 1 mg/kg; type: in vivo, Wister male rats; details: 1 mg/kg intravenous, urethane-anesthetized rats
Procedure: as §1, with “fervescence activity by intravenous injection Test animals” for “Test animals”, “Example 1. Ringer's solution containing ethyl alcohol was administered as control. Rising of body temperature is shown by the rising degree (°C.) from the temperature before administration.” for “Example 1.”

[3] = fervescence activity by intracerebroventricular injection (rising of body temperature); type: in vivo, Wister male rats; details: 400 ng in 3 μl into lateral ventricle, urethane-anesthetized rats, rectal temperature
Procedure: fervescence activity by intracerebroventricular injection
Wister male rats (8 weeks old) were used as test animals.
Rats were applied to anesthesia by intraperitoneal injection with 1.25 g/kg of urethane and a stainless guide cannula was inserted into the lateral ventricle for administration of a test drug according to Pellegrino's Rat brain atras.
Each test drug was dissolved into an artificial cerebrospinal fluid and 400 ng as drug in 3 μl was injected through the injection cannula for 15 seconds. The artificial cerebrospinal fluid alone was injected as control. Body temperature was measured continuously at the rectum. Rising of body temperature is shown by the rising degree (°C.) from the temperature before administration.

[4] = fervescence (recovery of body temperature) activity at hemorrhage load; type: in vivo, Wister male rats; details: rat loaded with hemorrhage
Procedure: fervescence (recovery of body temperature) activity at hemorrhage load
Wister male rats (weight: 200 g) were subcutaneously injected on the back with 1.5 g/kg of urethane, subjected to anesthesia. Hemorrhage was then induced by withdrawal of blood by puncture of the heart for the total volume of 3 ml equivalent to 1.5% of the body weight. After kept in a room for 60 minutes, the rats were administered intravenously with test solutions prepared by dissolving test drugs into Ringer's solution so as to administer the rat at a dose of 0.5 or 1 mg/kg, and change of the body temperature was observed. Ringer's solution was administered as control.
In the figures, (1), (2) and (3) correspond to the results of administration of doses 1 mg/kg, 0.5 mg/kg and Ringer's solution alone, respectively.

[5] = in vivo; cited from earlier work
[6] = sedation activity and rising of body temperature in dog; type: in vivo, hybrid adult dog; details: intravenous, 0.5 mg/kg
Source text: Sedation Activity A 19-methyl type compound having strong fervescence activity was compared with PGE2 […] sedation activity. A hybrid adult dog was held on a holder for dog and intravenously administered with a test drug dissolved in Ringer's solutions at the forefoot. Sedation activity was judged as follows: Sedation Degree 1: Disappearance of body movement 2: Closing of the eyes 3: Leaning on the holding belt

| Structure (SMILES) | Rising of Body Temperature [1] | LD50 (acute toxicity (LD50)) | Rising of Body Temperature [2] | Rising of Body Temperature [3] | further results |
| --- | --- | --- | --- | --- | --- |
| CCOC(=O)CCCCC(=O)C[C@H]1C(=O)C[C@@H](O)[C@@H]1/C=C/C(=O)CCCC(C)C [compound 62] | +0.63 °C |  |  |  |  |
| CCCCCC(=O)CC[C@H]1[C@H](O)CC(=O)[C@@H]1CCCCCCC(=O)OCC [compound 2] |  | > 1000 mg/kg | +0.9 °C | +0.4 °C |  |
| CCCCCC(=O)CC[C@H]1[C@H](O)CC(=O)[C@@H]1C/C=C\CCCC(=O)OCC [compound 24] |  | 1000 mg/kg | +0.5 °C | +0.5 °C | Rising of Body Temperature ([4]; 0.5 mg/kg intravenous): +0.8 °C; Rising of Body Temperature ([4]; 1 mg/kg intravenous): +1.1 °C |
| CCCCCC(=O)CC[C@H]1[C@H](O)CC(=O)[C@@H]1C/C=C\CCCC(=O)OC [compound 23] |  | > 1000 mg/kg | +1.0 °C | +0.4 °C |  |
| CCCCCC(=O)CC[C@H]1[C@H](O)CC(=O)[C@@H]1C/C=C\CCCC(=O)OCCC [compound 25] | +1.3 °C |  | +0.2 °C |  |  |
| CCCCC[C@H](O)/C=C/[C@H]1[C@H](O)CC(=O)[C@@H]1C/C=C\CCCC(=O)O [Test drug 58, PGE2] |  |  |  |  | blood pressure (known) [5]: strongly decreases the blood pressure; fervescence activity (known) [5]: known to have fervescence activity |
| COC(=O)CCC/C=C\C[C@H]1C(=O)C[C@@H](O)[C@@H]1CCC(=O)CCCC(C)C [compound 45] |  |  | +2.0 °C |  | Rising of Body Temperature [6]: 0.5 °C |
| CCOC(=O)CCCCC(=O)C[C@H]1C(=O)C[C@@H](O)[C@@H]1CCC(=O)CCCC(C)C [compound 16] |  | > 300 mg/kg | +0.8 °C |  | Rising of Body Temperature [6]: 1.1 °C; Rising of Body Temperature ([4]; 0.5 mg/kg intravenous): +0.4 °C; Rising of Body Temperature ([4]; 1 mg/kg intravenous): +0.6 °C |
| CCCCCC(=O)CC[C@H]1[C@H](O)CC(=O)[C@@H]1C/C=C\CCCC(=O)OCCCC [compound 26] | +0.9 °C |  | +0.2 °C | +0.1 °C |  |
